Test results published in patent publication US20080166753A1, “Microbial Growth Assay” (University Technologies International Inc., priority 2004, published 2008).
“Also recorded” adds a separate entry of the source.

Columns and labels:
[1] = system: P. aeruginosa mutant strain 4G6 biofilm; assay: Biofilm killing assessed by XTT absorbance, mutant strain 4G6; format: cell-based; conditions: strain 4G6 (contains gentamicin cassette), 48 h biofilm
Description: (§1) Biofilm Growth Conditions. Isolates were propagated in Mueller-Hinton broth (MHB). Flasks containing liquid medium (20 ml) were inoculated with a loopful of cells from MHB agar plates containing freshly grown isolates, and incubated overnight in an orbital shaker (100 rpm) at 37° C. Cells were harvested and resuspended in MHB at a cellular density equivalent to 1.0×10^6 cells per milliliter. Biofilms were formed on the pegs of the Calgary Biofilm Device (CBD; MBE™ Biofilm Technologies, Ltd., Edmonton AB), described in Ceri et al. (Ceri et al., J. Clin. Microbiol., 37(6):1771-6, 1999). The device consists of 96 conical pegs attached to a plastic lid. […]
(§2) Optimizing XTT Assay. In order to optimize the quantities of 2,3-bis[2-methyloxy-4-nitro-5-sulfophenyl]-2H-tetrazolium-5-carboxanilide (XTT; Sigma) and menadione required for quantifying biofilm metabolic activity, varying concentrations were tested. […] The concentration of menadione (2-methyl-1,4-naphthoquinone; Sigma), the electron-coupling agent, was varied to establish the optimal molarity in respect to maximal absorbance readings. […] The change in XTT absorbance at 490 nm was assessed spectrophotometerically using an automated microtiter plate reader. It was determined that 75 μM gave the optimal change in absorbance after 2 h (FIG. 7). […]
(§3) Assessment of Biofilm Killing Kinetics Using XTT. […] XTT absorbance readings were taken at 2 h and then at 24 h. […]

[2] = system: P. aeruginosa mutant strain TTD2 biofilm; assay: Biofilm killing assessed by XTT absorbance, mutant strain TTD2; format: cell-based; conditions: strain TTD2 (contains gentamicin cassette), 48 h biofilm
Description: as §1, §2, §3

## gentamicin
[1]
  Susceptibility as assessed by XTT absorbance: less susceptible; also recorded: decreased susceptibility
[2]
  Susceptibility as assessed by XTT absorbance: less susceptible; also recorded: decreased susceptibility
